Assay results taken from patent US20090192191A1, “Substituted hydroxamic acid derivatives as tnf inhibitors” (priority 2004, published 2009).

These molecules were tested on TNF-α (assay: In vitro screening for TNF-α inhibitory activity using rat whole blood assay). Conditions: 10 μM test substance, LPS 1 μg/mL, 5 h at 37° C, plasma TNF-α by ELISA.
Assay type: cell-based
Method: In Vitro Screening for TNF-α Inhibitory Activity Using Rat Whole Blood Assay:
Rats were deeply anaesthetized with anesthetic ether and blood (6-8 mL) was collected through retro-orbital plexus in a tube containing heparin (100 IU/mL). Five hundred microlitre blood sample was incubated with different concentrations of the test substances for 15 min at 37° C. LPS (1 μg/mL, final concentration) was subsequently added and the mixture was further incubated for 5 h at 37° C. The reaction was terminated by placing the samples over ice for 15 min. The samples were then centrifuged at 1000 g for 15 min at 4° C. The plasma was separated and stored in deep freezer until the assay. TNF-α levels were estimated in the treated plasma samples by ELISA method using commercially available kit (R&D System, Inc., USA). The inhibition of the TNF-α[…] production may be taken as an indicator of inhibition of TACE activity.

Molecule	% of TNF-α inhibition at 10 μM dose [%]
2-3-Amino-3-{4-[2-(4-methoxy)phenyl)-quinolin-4-ylmethoxy]-phenyl}-2-oxo-pyrrolidin-1-yl)-4-methyl-pentanoic acid hydroxyamide [Compound 14]	85
CC(C)CC(C(=O)NO)N1CCC(N)(c2ccc(OCc3cc(COC(C)C)nc4ccccc34)cc2)C1=O (centres unmarked) [Compound 5]	94
2-{3-Amino-2-oxo-3-[4-2-p-tolyl-quinolin-4-ylmethoxy)-phenyl]-pyrrolidin-1-yl}-N-hydroxy-propionamide [Compound 9]	82
2-{3-Amino-2-oxo-3-[4-(2-p-tolylsuinolin-4-ylmethoxy)-phenyl]-pyrrolidin-1-yl}-4-methyl-pentanoic acid hydroxyamide [Compound 8]	84
COc1cccc(-c2cc(COc3ccc(C4(N)CCN(C(CC(C)C)C(=O)NO)C4=O)cc3)c3ccccc3n2)c1 (centres unmarked) [Compound 27]	79

Same assay, conditions: 10 μM test substance, LPS 1 μg/mL, 5 h at 37° C, plasma TNF-α by ELISA, read-out: % of TNF-α inhibition at 10 μM dose

Molecule	inhibition at 10 µM [%]
COc1ccc(-c2cc(COc3ccc([C@]4(N)CCN([C@H](C)C(=O)NO)C4=O)cc3)c3ccccc3n2)cc1 (stereo in doubt) [Compound 15, 2-(3-Amino-3-{4-[2-(4-methoxy-phenyl}-quinolin-4-ylmethoxy]-phenyl)-2-oxo-pyrrolidin-1-yl)-N-hydroxy-propionamide]	84
COCCc1cc(COc2ccc(C3(N)CCN(C(CC(C)C)C(=O)NO)C3=O)cc2)c2ccccc2n1 (centres unmarked) [Compound 7, 2-(3-Amino-3-{4-[2-(2-methoxy-ethyl)quinolin-4-ylmethoxy]-phenyl}-2-oxo-pyrrolidin-1-yl)-4-methyl-pentanoic acid hydroxyamide]	85
COCc1cc(COc2ccc([C@]3(N)CCN([C@H](CC(C)C)C(=O)NO)C3=O)cc2)c2ccccc2n1 [Compound 2]	92
